Molecular target: human F508del-CFTR (Homo sapiens, UniProt P13569, DEL508-508)
Assay: F508del-CFTR cell surface expression (corrector activity), DiscoveRx ß-galactosidase complementation chemiluminescence assay in recombinant U2OS cell line;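 note: U2OS cells co-expressing ProLink-tagged F508del-CFTR and a membrane-anchored enzyme acceptor, where more surface CFTR restores β-galactosidase activity measured by chemiluminescence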
Settings: U2OS cell line, 16h compound incubation; for EC50: EC50, F508del-CFTR cell surface expression, geomean values; for Emax: U2OS, in relation to the Emax of the corrector lumacaftor (=100%), arithmetic mean values

Chain of human F508del-CFTR (P13569 with tags, fused parts or gaps DEL508-508): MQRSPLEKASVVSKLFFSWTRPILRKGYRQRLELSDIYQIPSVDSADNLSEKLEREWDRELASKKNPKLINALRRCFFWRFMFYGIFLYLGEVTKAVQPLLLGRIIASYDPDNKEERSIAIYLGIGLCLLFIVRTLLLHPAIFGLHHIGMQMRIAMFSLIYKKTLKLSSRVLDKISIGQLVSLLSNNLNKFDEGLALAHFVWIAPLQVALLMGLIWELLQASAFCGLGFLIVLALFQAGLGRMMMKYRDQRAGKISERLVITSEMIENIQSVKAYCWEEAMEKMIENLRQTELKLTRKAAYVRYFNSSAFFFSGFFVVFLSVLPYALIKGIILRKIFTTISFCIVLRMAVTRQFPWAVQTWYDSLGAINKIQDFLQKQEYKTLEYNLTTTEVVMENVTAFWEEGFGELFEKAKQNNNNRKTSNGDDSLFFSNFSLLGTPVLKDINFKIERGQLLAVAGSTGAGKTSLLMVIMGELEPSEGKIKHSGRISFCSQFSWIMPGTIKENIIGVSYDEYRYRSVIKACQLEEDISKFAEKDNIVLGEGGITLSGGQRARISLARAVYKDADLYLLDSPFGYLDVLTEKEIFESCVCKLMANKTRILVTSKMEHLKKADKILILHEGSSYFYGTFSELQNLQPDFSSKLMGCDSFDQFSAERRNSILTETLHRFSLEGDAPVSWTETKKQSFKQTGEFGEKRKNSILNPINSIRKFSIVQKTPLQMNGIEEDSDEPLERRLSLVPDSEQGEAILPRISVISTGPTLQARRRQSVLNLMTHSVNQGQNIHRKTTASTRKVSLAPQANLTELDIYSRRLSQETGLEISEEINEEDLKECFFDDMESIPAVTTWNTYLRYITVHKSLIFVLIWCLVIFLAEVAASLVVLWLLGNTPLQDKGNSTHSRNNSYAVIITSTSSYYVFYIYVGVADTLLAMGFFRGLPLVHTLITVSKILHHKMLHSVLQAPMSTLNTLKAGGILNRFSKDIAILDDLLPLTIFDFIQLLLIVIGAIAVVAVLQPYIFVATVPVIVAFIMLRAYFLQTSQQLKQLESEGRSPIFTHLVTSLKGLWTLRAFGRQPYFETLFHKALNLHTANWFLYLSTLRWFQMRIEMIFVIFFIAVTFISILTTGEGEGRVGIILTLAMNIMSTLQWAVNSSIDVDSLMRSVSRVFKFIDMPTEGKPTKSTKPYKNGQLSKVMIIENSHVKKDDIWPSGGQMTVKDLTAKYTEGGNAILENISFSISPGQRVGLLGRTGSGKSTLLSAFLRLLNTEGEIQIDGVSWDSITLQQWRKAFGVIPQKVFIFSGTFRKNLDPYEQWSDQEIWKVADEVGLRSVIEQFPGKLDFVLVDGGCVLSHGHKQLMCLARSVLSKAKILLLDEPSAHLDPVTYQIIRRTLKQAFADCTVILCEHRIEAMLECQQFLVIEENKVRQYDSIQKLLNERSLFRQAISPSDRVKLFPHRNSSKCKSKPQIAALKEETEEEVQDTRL

Structure (SMILES) | EC50 [nM] | Emax [%]
CC(C)C[C@H]1C(=O)N(CCC2CC3CCC2O3)CC(=O)N[C@H](Cc2ccccc2)COc2ccc3ccccc3c2C(=O)N[C@H](C(=O)NCCc2ccc3c(c2)OCO3)CC(=O)N1C (stereo partly drawn) [Example 330, (3S,7S,13R)-9-(2-(7-oxabicyclo[2.2.1]heptan-2-yl)ethyl)-N-(2-(benzo[d][1,3]dioxol-5-yl)ethyl)-13-benzyl-7-isobutyl-6-methyl-1,5,8,11-tetraoxo-1,2,3,4,5,6,7,8,9,10,11,12,13,14-tetradecahydronaphtho[1,2-p][1]oxa[4,7,10,14]tetraazacycloheptadecine-3-carboxamide] | 418 | 138
CC(C)C[C@H]1C(=O)N(CCC2CCC3(CCC3)O2)CC(=O)N[C@H](Cc2ccccc2)COc2ccc3ccccc3c2C(=O)N[C@H](C(=O)NCCc2ccc3c(c2)OCO3)CC(=O)N1C (stereo partly drawn) [Example 331, (3S,7S,13R)-9-(2-(5-oxaspiro[3.4]octan-6-yl)ethyl)-N-(2-(benzo[d][1,3]dioxol-5-yl)ethyl)-13-benzyl-7-isobutyl-6-methyl-1,5,8,11-tetraoxo-1,2,3,4,5,6,7,8,9,10,11,12,13,14-tetradecahydronaphtho[1,2-p][1]oxa[4,7,10,14]tetraazacycloheptadecine-3-carboxamide] | 121 | 240
CC(C)C[C@H]1C(=O)N(CCC2CCCO2)CC(=O)N[C@H](Cc2ccccc2)COc2ccc3ccccc3c2C(=O)N[C@H](C(=O)NCCc2ccc3c(c2)OCO3)CC(=O)N1C (stereo partly drawn) [Example 332, (3S,7S,13R)-N-(2-(benzo[d][1,3]dioxol-5-yl)ethyl)-13-benzyl-7-isobutyl-6-methyl-1,5,8,11-tetraoxo-9-(2-(tetrahydrofuran-2-yl)ethyl)-1,2,3,4,5,6,7,8,9,10,11,12,13,14-tetradecahydronaphtho[1,2-p][1]oxa[4,7,10,14]tetraazacycloheptadecine-3-carboxamide] | 309 | 183
CC(C)C[C@H]1C(=O)N(CCC2CCCOC2)CC(=O)N[C@H](Cc2ccccc2)COc2ccc3ccccc3c2C(=O)N[C@H](C(=O)NCCc2ccc3c(c2)OCO3)CC(=O)N1C (stereo partly drawn) [Example 333, (3S,7S,13R)-N-(2-(benzo[d][1,3]dioxol-5-yl)ethyl)-13-benzyl-7-isobutyl-6-methyl-1,5,8,11-tetraoxo-9-(2-(tetrahydro-2H-pyran-3-yl)ethyl)-1,2,3,4,5,6,7,8,9,10,11,12,13,14-tetradecahydronaphtho[1,2-p][1]oxa[4,7,10,14]tetraazacycloheptadecine-3-carboxamide] | 345 | 182
CC(C)C[C@H]1C(=O)N(CCC2CCC3(CCOCC3)CO2)CC(=O)N[C@H](Cc2ccccc2)COc2ccc3ccccc3c2C(=O)N[C@H](C(=O)NCCc2ccc3c(c2)OCO3)CC(=O)N1C (stereo partly drawn) [Example 334, (3S,7S,13R)-9-(2-(2,9-dioxaspiro[5.5]undecan-3-yl)ethyl)-N-(2-(benzo[d][1,3]dioxol-5-yl)ethyl)-13-benzyl-7-isobutyl-6-methyl-1,5,8,11-tetraoxo-1,2,3,4,5,6,7,8,9,10,11,12,13,14-tetradecahydronaphtho[1,2-p][1]oxa[4,7,10,14]tetraazacycloheptadecine-3-carboxamide] | 323 | 232
CC(C)C[C@H]1C(=O)N(CCOC(C)(C)C)CC(=O)N[C@H](Cc2ccccc2)COc2ccc3ccccc3c2C(=O)N[C@H](C(=O)NCCc2ccc3c(c2)OCO3)CC(=O)N1C [Example 335, (3S,7S,13R)-N-(2-(benzo[d][1,3]dioxol-5-yl)ethyl)-13-benzyl-9-(2-(tert-butoxy)ethyl)-7-isobutyl-6-methyl-1,5,8,11-tetraoxo-1,2,3,4,5,6,7,8,9,10,11,12,13,14-tetradecahydronaphtho[1,2-p][1]oxa[4,7,10,14]tetraazacycloheptadecine-3-carboxamide] | 270 | 262
COC1CC(CCN2CC(=O)N[C@H](Cc3ccccc3)COc3ccc4ccccc4c3C(=O)N[C@H](C(=O)NCCc3ccc4c(c3)OCO4)CC(=O)N(C)[C@@H](CC(C)C)C2=O)C1 (stereo partly drawn) [Example 336, (3S,7S,13R)-N-(2-(benzo[d][1,3]dioxol-5-yl)ethyl)-13-benzyl-7-isobutyl-9-(2-(3-methoxycyclobutyl)ethyl)-6-methyl-1,5,8,11-tetraoxo-1,2,3,4,5,6,7,8,9,10,11,12,13,14-tetradecahydronaphtho[1,2-p][1]oxa[4,7,10,14]tetraazacycloheptadecine-3-carboxamide] | 207 | 212
CN1C(=O)C[C@@H](C(=O)NCCc2ccc3c(c2)OCO3)NC(=O)c2c(ccc3ccccc23)OC[C@@H](Cc2ccccc2)NC(=O)CN(C[C@@H]2CCCCO2)C(=O)[C@@H]1CC1CCC1 [Example 337, (3S,7S,13R)-N-(2-(benzo[d][1,3]dioxol-5-yl)ethyl)-13-benzyl-7-(cyclobutylmethyl)-6-methyl-1,5,8,11-tetraoxo-9-(((S)-tetrahydro-2H-pyran-2-yl)methyl)-1,2,3,4,5,6,7,8,9,10,11,12,13,14-tetradecahydronaphtho[1,2-p][1]oxa[4,7,10,14]tetraazacycloheptadecine-3-carboxamide] | 452 | 116
CN1C(=O)C[C@@H](C(=O)NCCc2ccc3c(c2)OCO3)NC(=O)c2c(ccc3ccccc23)OC[C@@H](Cc2ccccc2)NC(=O)CN(C[C@H]2CCCCO2)C(=O)[C@@H]1CC1CCC1 [Example 338, (3S,7S,13R)-N-(2-(benzo[d][1,3]dioxol-5-yl)ethyl)-13-benzyl-7-(cyclobutylmethyl)-6-methyl-1,5,8,11-tetraoxo-9-(((R)-tetrahydro-2H-pyran-2-yl)methyl)-1,2,3,4,5,6,7,8,9,10,11,12,13,14-tetradecahydronaphtho[1,2-p][1]oxa[4,7,10,14]tetraazacycloheptadecine-3-carboxamide] | 292 | 173
C#CC[C@H]1C(=O)N(CCC2CCCCC2)CC(=O)N[C@H](Cc2ccccc2)COc2ccc3ccccc3c2C(=O)N[C@H](C(=O)NCCc2ccc3c(c2)OCO3)CC(=O)N1C [Example 339, (3S,7S,13R)-N-(2-(benzo[d][1,3]dioxol-5-yl)ethyl)-13-benzyl-9-(2-cyclohexylethyl)-6-methyl-1,5,8,11-tetraoxo-7-(prop-2-yn-1-yl)-1,2,3,4,5,6,7,8,9,10,11,12,13,14-tetradecahydronaphtho[1,2-p][1]oxa[4,7,10,14]tetraazacycloheptadecine-3-carboxamide] | 195 | 237
CN1C(=O)C[C@@H](C(=O)NCCc2ccc3c(c2)OCO3)NC(=O)c2c(ccc3ccccc23)OC[C@@H](Cc2ccccc2)NC(=O)CN(C[C@H]2CCCCO2)C(=O)[C@@H]1CC1CC1 [Example 340, (3S,7S,13R)-N-(2-(benzo[d][1,3]dioxol-5-yl)ethyl)-13-benzyl-7-(cyclopropylmethyl)-6-methyl-1,5,8,11-tetraoxo-9-(((R)-tetrahydro-2H-pyran-2-yl)methyl)-1,2,3,4,5,6,7,8,9,10,11,12,13,14-tetradecahydronaphtho[1,2-p][1]oxa[4,7,10,14]tetraazacycloheptadecine-3-carboxamide] | 278 | 139
CN1C(=O)C[C@@H](C(=O)NCCc2ccc3c(c2)OCO3)NC(=O)c2c(ccc3ccccc23)OC[C@@H](Cc2ccccc2)NC(=O)CN(CCC2CCCCC2)C(=O)[C@@H]1CC1CC1 [Example 341, (3S,7S,13R)-N-(2-(benzo[d][1,3]dioxol-5-yl)ethyl)-13-benzyl-9-(2-cyclohexylethyl)-7-(cyclopropylmethyl)-6-methyl-1,5,8,11-tetraoxo-1,2,3,4,5,6,7,8,9,10,11,12,13,14-tetradecahydronaphtho[1,2-p][1]oxa[4,7,10,14]tetraazacycloheptadecine-3-carboxamide] | 144 | 237
COc1cccc(CCNC(=O)[C@@H]2CC(=O)N(C)[C@@H](CC(C)C)C(=O)N3CCCC[C@H]3C(=O)N[C@H](Cc3ccccc3)COc3ccc4ncoc4c3C(=O)N2)c1 [Example 342, (8S,12S,18aS,21R)-21-benzyl-12-isobutyl-N-(3-methoxyphenethyl)-11-methyl-6,10,13,19-tetraoxo-6,7,8,9,10,11,12,13,16,17,18,18a,19,20,21,22-hexadecahydro-15H-oxazolo[4′,5′:5,6]benzo[1,2-p]pyrido[2,1-f][1]oxa[4,7,10,14]tetraazacycloheptadecine-8-carboxamide] | 464 | 128
COc1cccc(CCNC(=O)[C@@H]2CC(=O)N(C)[C@@H](CC(C)C)C(=O)N3CCCC[C@@H]3C(=O)N[C@H](Cc3ccccc3)COc3ccc4ncoc4c3C(=O)N2)c1 [Example 343, (8S,12S,18aR,21R)-21-benzyl-12-isobutyl-N-(3-methoxyphenethyl)-11-methyl-6,10,13,19-tetraoxo-6,7,8,9,10,11,12,13,16,17,18,18a,19,20,21,22-hexadecahydro-15H-oxazolo[4′,5′:5,6]benzo[1,2-p]pyrido[2,1-f][1]oxa[4,7,10,14]tetraazacycloheptadecine-8-carboxamide] | 332 | 270
Cc1cc(CCNC(=O)[C@@H]2CC(=O)N(C)[C@@H](CC(C)C)C(=O)N(CCC3CCCCC3)CC(=O)N[C@H](Cc3ccccc3)COc3cnc4ccccc4c3C(=O)N2)on1 [Example 344, (3S,7S,13R)-13-benzyl-9-(2-cyclohexylethyl)-7-isobutyl-6-methyl-N-(2-(3-methylisoxazol-5-yl)ethyl)-1,5,8,11-tetraoxo-1,2,3,4,5,6,7,8,9,10,11,12,13,14-tetradecahydro-[1]oxa[4,7,10,14]tetraazacycloheptadecino[17,16-c]quinoline-3-carboxamide] | 126 | 284

Reference: US20240208992A1, “MACROCYCLES AS CFTR MODULATORS” (Idorsia Pharmaceuticals Ltd, priority 2021, published 2024)
